Source: patent US20240254119A1 (THIRD HARMONIC BIO, INC., priority 2022, published 2024)

Columns and labels:
[1] = tested on: KIT phosphorylation in M-07e cells; test: Cell-based KIT phosphorylation in M-07e cells by pKIT ELISA; design: species or system human; conditions: SCF stimulation
Method: Exemplary compounds were tested for ability to inhibit KIT phosphorylation using M-07e cells as monitored by pKIT ELISA. M-07e cells are also represented as M-07E, M-07e, M07-e, M07e, Mo7e, MO7e, M07E and MO7E. Assay procedures and results are described below.
Part I—Procedures for Determining KIT Inhibition inM-07e Cells Using pKTT ELISA Reagents and consumables: • M-07e cells: Initially obtained from Accegen, cat #ABC-TC1313 • p-cKIT Capture ELISA antibody: anti-Human Phospho-CD117/c-kit, R&D cat #DYC3527-5 • Anti-pY-HIRP antibody: R&D cat #DYC3527-5 • 25× wash buffer: Quantikine ELISA Wash Buffer 1, R&D cat #WA126 • PBS: R&D cat #DY006 • 96 well ELISA plates: Clear Polystyrene Microplates, R&D Cat #DY990 • 96 well Tissue culture plates: Corning® 96 Well TC-Treated Microplates, cat #CLS3894 • RPMI medium: ATCC® RPMI-1640 Medium, Cat #30-2001 • FBS: Fetal Bovine Serum, certified, United States Gibco, Thermo-Fisher 16000044 • GM-CSF: Recombinant Human GM-CSF Protein, R&D cat #215-GM • SCF: Recombinant Human SCF Protein, R&D cat #255-SC
• 1. Prepare cells: • a. Culture M-07e cells in RPMI medium+20% serum+GM-CSF+penstrep • To make 50 mL of growth medium • i. 40 mL RPMI media • ii. 10 mL FBS • iii. 10 uL of GM-CSF (100 ug/mL stock) • iv. 0.5 mL pen strep (100×) • b. Harvest cells • c. Re-suspend cells in 100% RPMI media (without serum) to final concentration of 1 million cells/mL • d. Transfer 100 uL of cell solution to 11 columns of a 96 well flat bottom cell culture plate • e. Incubate cells over night at 37 C • 2. Prepare ELISA Plates: • a. Dilute capture antibody to concentration 4 ug/mL in PBS • b. Coat 96 well microplates with 100 uL of capture antibody • c. Seal plates and incubate at RT overnight • d. Wash plates with 300 uL of wash buffer • e. Repeat wash • f. Treat plates with 300 uL of blocking buffer at RT for 1 hour • 3. Addition of compounds: • a. Prepare compound dilutions in RPMI media • i. Top test concentration is 1 uM • ii. Serially dilute compounds 3× for a total of 8 concentrations • b. Add 10 uL of 10× compound dilutions to cells • i. No compounds added in column 11 (for controls) • c. Incubate cells with compounds for 2 hours at 37 C • d. Stimulate cells with SCF for 5 min at concentration of 100 ng/mL (final) • i. In column 11 stimulate top 4 wells. Leave bottom 4 wells unstimulated • e. Remove cell culture media with multichannel pipet • f. Add 110 uL of Lysis buffer to all wells • g. Incubate plates at RT for 30 min while shaking • 4. Transfer 100 uL of cell lysis to each prepared Elisa plate • 5. Add 100 uL of the standard pc-KIT dilutions to the standard wells in column 12 • a. Top concentration=2000 pg/mL • b. 2× dilutions • 6. Incubate ELISA plate with cell lysate for 2 hours at RT • 7. Wash Plate with wash buffer (wash 1) • 8. Repeat wash (wash 2) • 9. […] Add 100 uL of diluted anti-pY-HRP (1/1000 dilution in detection antibody dilution buffer) and incubate 2 hours at RT • 11. Wash plate with wash buffer (wash 1) • 12. Repeat wash (wash 2) • 13. Repeat wash (wash 3) • 14. Add 100 uL of substrate solution to each well • 15. Incubate plates 20 min • Note: Plate development is indicated by aqua color • 16. Add 50 uL of stop solution to each well • 17. Determine optical density on Bitek Synergy Neo2: • a. Make new experiment
Select absorbance 1 set to 450 nm

Kinetic solubility assay = assay type: physicochemical; conditions: kinetic solubility, 50 mM PB (pH 7.4), shaken 24 hours at RT
Outline: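 Concentration in the filtrate was determined by UPLC-UV or HPLC-UV with a standard curve. Before that, compound (10 mM DMSO stock) in 50 mM PB at pH 7.4 was agitated 24 h at room temperature, then PTFE-filtered with centrifugation.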

wtKIT = biological target: T1, wtKIT (Homo sapiens, UniProt P10721); test: HTRF biochemical assay, wtKIT (phosphorylation of a peptide substrate); conditions: Table 4
T1 construct: 1888289AM in the reaction mixtures
T1 sequence (P10721 26-976): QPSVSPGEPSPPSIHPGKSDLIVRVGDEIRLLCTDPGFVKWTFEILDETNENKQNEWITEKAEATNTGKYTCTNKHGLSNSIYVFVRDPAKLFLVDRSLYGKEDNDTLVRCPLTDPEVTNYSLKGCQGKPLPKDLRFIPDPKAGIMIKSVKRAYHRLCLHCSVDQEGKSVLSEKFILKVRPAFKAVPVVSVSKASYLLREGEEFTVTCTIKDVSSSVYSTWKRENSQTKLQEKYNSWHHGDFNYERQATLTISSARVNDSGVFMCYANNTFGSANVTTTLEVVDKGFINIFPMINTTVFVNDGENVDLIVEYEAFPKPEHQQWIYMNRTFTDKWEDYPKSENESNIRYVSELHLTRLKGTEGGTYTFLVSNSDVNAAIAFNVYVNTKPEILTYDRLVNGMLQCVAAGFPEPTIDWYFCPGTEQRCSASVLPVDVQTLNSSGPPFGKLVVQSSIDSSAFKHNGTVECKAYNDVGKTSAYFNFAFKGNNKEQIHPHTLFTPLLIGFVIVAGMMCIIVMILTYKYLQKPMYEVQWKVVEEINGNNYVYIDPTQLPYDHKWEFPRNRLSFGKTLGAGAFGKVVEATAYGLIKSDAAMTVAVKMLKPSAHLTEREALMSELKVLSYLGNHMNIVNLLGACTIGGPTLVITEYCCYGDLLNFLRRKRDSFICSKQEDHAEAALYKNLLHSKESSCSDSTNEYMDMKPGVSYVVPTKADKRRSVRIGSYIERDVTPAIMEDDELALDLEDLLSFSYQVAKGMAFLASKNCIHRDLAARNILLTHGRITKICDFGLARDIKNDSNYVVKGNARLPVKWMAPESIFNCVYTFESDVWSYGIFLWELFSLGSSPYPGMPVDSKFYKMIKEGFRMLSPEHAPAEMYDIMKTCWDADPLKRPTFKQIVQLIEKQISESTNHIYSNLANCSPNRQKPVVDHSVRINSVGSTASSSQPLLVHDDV
Outline: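 HTRF read-out of FAM-peptide (1 µM) phosphorylation after anti-phosphotyrosine antibody addition and EDTA quench. Reaction: 5.0 nM wtKIT, 400 µM ATP, 10 mM Mn2+, HEPES pH 7.5, 1% DMSO, 3 h, 25 °C; optional enzyme-compound preincubation; enzyme level set for 10-20% conversion.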

CSF-1R = biological target: T2, CSF-1R (Homo sapiens, UniProt P07333); test: HTRF biochemical assay, CSF-1R; conditions: Table 4
T2 construct: purchased Invitrogen PV3249 (lot 662393N)
T2 sequence (P07333 20-972): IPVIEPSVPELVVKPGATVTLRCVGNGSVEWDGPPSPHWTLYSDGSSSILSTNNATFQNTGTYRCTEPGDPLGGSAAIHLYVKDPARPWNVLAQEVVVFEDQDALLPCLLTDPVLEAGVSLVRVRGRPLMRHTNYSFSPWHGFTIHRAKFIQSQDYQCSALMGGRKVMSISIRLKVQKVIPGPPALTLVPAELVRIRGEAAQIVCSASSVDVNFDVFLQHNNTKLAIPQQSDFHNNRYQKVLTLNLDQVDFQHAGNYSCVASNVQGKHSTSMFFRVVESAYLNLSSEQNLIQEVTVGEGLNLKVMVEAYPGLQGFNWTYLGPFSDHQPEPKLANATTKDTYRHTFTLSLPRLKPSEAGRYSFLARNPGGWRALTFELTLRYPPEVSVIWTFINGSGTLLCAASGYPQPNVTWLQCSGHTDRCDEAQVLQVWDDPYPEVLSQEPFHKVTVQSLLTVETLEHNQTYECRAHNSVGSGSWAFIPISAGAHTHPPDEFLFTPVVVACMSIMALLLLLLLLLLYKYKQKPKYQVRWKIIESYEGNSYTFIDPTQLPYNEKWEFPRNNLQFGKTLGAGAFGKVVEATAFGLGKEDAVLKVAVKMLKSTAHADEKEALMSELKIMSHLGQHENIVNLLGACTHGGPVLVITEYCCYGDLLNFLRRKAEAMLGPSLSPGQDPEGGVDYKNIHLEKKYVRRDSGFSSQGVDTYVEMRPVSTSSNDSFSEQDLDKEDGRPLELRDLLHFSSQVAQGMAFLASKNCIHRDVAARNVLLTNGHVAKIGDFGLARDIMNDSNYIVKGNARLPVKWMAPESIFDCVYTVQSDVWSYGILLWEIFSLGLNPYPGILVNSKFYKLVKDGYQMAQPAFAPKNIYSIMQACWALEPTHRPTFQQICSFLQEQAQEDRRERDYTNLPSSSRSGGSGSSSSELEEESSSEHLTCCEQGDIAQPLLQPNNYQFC
Method: (§1) Exemplary compounds were tested for ability to inhibit the phosphorylation of a peptide substrate by the tyrosine kinase wt KIT, PDGFRα, or CSF-1R. Assay procedures and results are described below.
(§2) Enzyme, substrate, and cofactors (ATP and Mn^2+) are combined in a well of a microtiter plate and incubated for 3 hours at 25° C. At the end of the incubation, the reaction is quenched by the addition of an EDTA-containing buffer.
(§3) The substrate used in the CSF-1R and PDGFRα assay is FAM-[…]-CONH2 (FAM is carboxyfluorescein). Peptide should be >95% purity. The substrate for the KIT assay is FAM-[…]-NH2.
(§4) • 1. To a well of a 384-wellplate add 5 μL of 2× enzyme buffer (or control). • 2. Add 100 nL of 100× compound. Enzyme and compound may be pre-incubated at this time if desired. • 3. Add 5 μL of 2× substrate buffer. • 4. Incubate plate at 25° C. for 3 hours. • 5. Add 10 uL of anti-phosphotyrosine antibody buffer. • 6. Read plate in BioTek Synergy Reader. Reaction Conditions for wtKIT Assay

PDGFRα = biological target: T3, PDGFRα (Homo sapiens, UniProt P16234); test: HTRF biochemical assay, PDGFRα; conditions: Table 4, read-out: PDFGRα Biochemical IC50 avg
T3 construct: purchased Millipore 14-467 (lot 26321_ACTI)
T3 sequence (P16234 24-1089): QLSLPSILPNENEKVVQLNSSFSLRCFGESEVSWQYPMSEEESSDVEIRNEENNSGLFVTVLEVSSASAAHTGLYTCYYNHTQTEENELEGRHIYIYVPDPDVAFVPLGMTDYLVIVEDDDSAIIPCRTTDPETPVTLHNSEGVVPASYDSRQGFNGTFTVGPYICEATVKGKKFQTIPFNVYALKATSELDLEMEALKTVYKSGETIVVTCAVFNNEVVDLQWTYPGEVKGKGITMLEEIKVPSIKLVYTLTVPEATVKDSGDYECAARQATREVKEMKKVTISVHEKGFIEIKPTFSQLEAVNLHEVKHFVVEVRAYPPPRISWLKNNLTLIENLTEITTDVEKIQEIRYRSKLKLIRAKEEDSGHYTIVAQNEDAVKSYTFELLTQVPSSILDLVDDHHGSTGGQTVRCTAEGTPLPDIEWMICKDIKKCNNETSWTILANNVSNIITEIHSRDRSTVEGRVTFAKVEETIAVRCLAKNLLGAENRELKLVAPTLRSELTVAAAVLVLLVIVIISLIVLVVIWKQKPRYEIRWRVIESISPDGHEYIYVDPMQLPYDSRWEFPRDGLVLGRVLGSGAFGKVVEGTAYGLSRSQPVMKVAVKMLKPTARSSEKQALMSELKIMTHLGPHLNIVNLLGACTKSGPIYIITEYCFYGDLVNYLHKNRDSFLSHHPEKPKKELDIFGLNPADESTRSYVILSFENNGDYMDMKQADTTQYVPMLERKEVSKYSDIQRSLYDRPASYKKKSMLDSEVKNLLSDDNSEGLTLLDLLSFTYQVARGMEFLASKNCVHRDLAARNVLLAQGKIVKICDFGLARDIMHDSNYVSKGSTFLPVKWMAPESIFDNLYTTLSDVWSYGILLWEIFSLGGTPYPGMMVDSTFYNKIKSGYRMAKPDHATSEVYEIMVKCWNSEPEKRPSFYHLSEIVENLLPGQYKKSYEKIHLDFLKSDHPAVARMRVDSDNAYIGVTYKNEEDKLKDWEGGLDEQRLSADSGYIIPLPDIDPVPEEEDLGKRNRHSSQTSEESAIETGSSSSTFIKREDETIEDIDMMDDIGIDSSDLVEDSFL
Method: as §1, §2, §3, §4

SMILES | IC50 [1] [nM] | Solubility (μM) (Kinetic solubility assay) | IC50 (wtKIT) [nM] | IC50 (CSF-1R) [nM] | IC50 (PDGFRα) [nM]
Cc1ccc2ncc(C(=O)Nc3cc(-c4noc([C@H]5C[C@@H]5F)n4)ccc3C)n2c1 [Compound I-108] | ≤ 50 | **** (a solubility less than or equal to 2 μM) | ≤ 50 | ≤ 50 | 50 to 500
COc1ccn2c(C(=O)Nc3cc(-c4noc(C[C@@H](C)O)n4)ccc3C)cnc2c1 [Compound I-95] | ≤ 50 | **** (a solubility less than or equal to 2 μM) | ≤ 50 | 50 to 500 | 500 to 5000
Cc1ccc(-c2noc(CC(O)C(F)F)n2)cc1NC(=O)c1cnn2ccccc12 (single isomer, unassigned) [Compound I-75] | ≤ 50 | **** (a solubility less than or equal to 2 μM) | ≤ 50 | 50 to 500 | 500 to 5000
Cc1ccc(-c2noc(C[C@H](C)O)n2)cc1NC(=O)c1cnn2ccccc12 [Compound I-80] | ≤ 50 | * (a solubility greater than 50 μM) | 50 to 500 | 50 to 500 | 5000 to 30000
Cc1ccc(-c2noc(C(O)C3CC3)n2)cc1NC(=O)c1cnc2ccccn12 (racemic) [Compound I-78] | ≤ 50 | **** (a solubility less than or equal to 2 μM) | ≤ 50 | 50 to 500 | 500 to 5000
Cc1ccc(-c2noc(C(F)C3CC3)n2)cc1NC(=O)c1cnc2ccccn12 (racemic) [Compound I-77] | ≤ 50 | **** (a solubility less than or equal to 2 μM) | ≤ 50 | 50 to 500 | 5000 to 30000
Cc1ccc(-c2noc(C(O)C3CCC3)n2)cc1NC(=O)c1cnc2ccccn12 (racemic) [Compound I-79] | ≤ 50 | **** (a solubility less than or equal to 2 μM) | ≤ 50 | 50 to 500 | 50 to 500
Cc1ccc(-c2noc([C@@H]3CC(F)(F)CN3)n2)cc1NC(=O)c1cnc2cc(COCCO)ccn12 [Compound I-111] | ≤ 50 | * (a solubility greater than 50 μM) | ≤ 50 | 50 to 500 | 50 to 500
Cc1ccc(-c2noc([C@H]3C[C@@H]3F)n2)cc1NC(=O)c1cnc2ccc(Cl)cn12 [Compound I-102] | ≤ 50 | **** (a solubility less than or equal to 2 μM) | ≤ 50 | ≤ 50 | 500 to 5000
Cc1ccc(-c2noc([C@H]3C[C@@H]3F)n2)cc1NC(=O)c1cnn2cc(F)ccc12 [Compound I-101] | 50 to 500 | **** (a solubility less than or equal to 2 μM) | ≤ 50 | 50 to 500 | 5000 to 30000
CCOc1ccc2ncc(C(=O)Nc3cc(-c4noc([C@H]5C[C@@H]5F)n4)ccc3C)n2c1 [Compound I-92] | ≤ 50 | **** (a solubility less than or equal to 2 μM) | ≤ 50 | ≤ 50 | 50 to 500
COC(=O)N1CC(c2nc(-c3ccc(C)c(NC(=O)c4cnc5cc(CO)ccn45)c3)no2)C1 [Compound I-120] | ≤ 50 | **** (a solubility less than or equal to 2 μM) | 50 to 500 | 5000 to 30000 | 5000 to 30000
Cc1ccc(-c2noc(C3CC3F)n2)cc1NC(=O)c1cnc2cc(COC3CC(O)C3)ccn12 (centres unmarked) [Compound I-85] | ≤ 50 | **** (a solubility less than or equal to 2 μM) | ≤ 50 | ≤ 50 | 500 to 5000
Cc1ccc(-c2noc(C[C@@H](C)O)n2)cc1NC(=O)c1cnn2ccccc12 [Compound I-81] | ≤ 50 | ** (a solubility greater than 10 μM and less than or equal to 50 μM) | 50 to 500 | 500 to 5000 | 5000 to 30000
Cc1ccc(-c2noc([C@H]3C[C@@H]3F)n2)cc1NC(=O)c1cnc2ccc(OC(C)C)cn12 [Compound I-86] | ≤ 50 | **** (a solubility less than or equal to 2 μM) | ≤ 50 | ≤ 50 | 50 to 500
Cc1ccc(-c2noc([C@H]3C[C@@H]3F)n2)cc1NC(=O)c1cnc2ccc(C3CNC3)cn12 [Compound I-106] | 50 to 500 | * (a solubility greater than 50 μM) | ≤ 50 | ≤ 50 | 50 to 500
